Laboratory results from EPA's ToxValDB 9.5 (doi:10.2903/j.efsa.2020.6232).

Experiments:
Pimephales promelas = conditions: chronic/long-term; duration: 28 days
Oncorhynchus mykiss = conditions: acute; duration: 96 hours; mortality
Bibionidae = conditions: chronic/long-term; duration: 23 days; reproduction
Hypoaspis aculeifer = conditions: chronic/long-term; reproduction
Colinus virginianus = conditions: acute, oral, mortality
Apis mellifera = conditions: acute, mortality
Coturnix japonica = conditions: reproduction developmental
Tagia sp. = conditions: chronic/long-term; reproduction
Typhlodromus pyri = experiment: LR50; higher = less toxic; conditions: mortality

In the case of `Cc1ccc(-c2c(Cl)nc(C#N)n2S(=O)(=O)N(C)C)cc1`, the NOEC (Pimephales promelas) is reported as 0.09 mg/L, the LC50 (Oncorhynchus mykiss) is reported as over 0.107 µg/mL and the NOEC (Bibionidae) is reported as 0.0117 mg/L. The NOEC (Hypoaspis aculeifer) was 18.7 mg/kg, the LD50 (Colinus virginianus; diet) was over 1280 mg/kg-day and the LD50 (Colinus virginianus) was over 2000 mg/kg-day. The LD50 (Rattus norvegicus; acute, oral, mortality) was over 5000 mg/kg-day, the NOAEL (Rattus norvegicus; chronic, duration: 2 years, organ weight) was 17 mg/kg-day and the NOAEL (Rattus norvegicus; reproduction developmental, body weight) was 89 mg/kg-day. The NOAEL (Rattus norvegicus; subchronic, duration: 90 days, oral, organ weight) was 29.5 mg/kg-day, the LD50 (Apis mellifera; dermal) was 9.52 µg/piece and the LD50 (Apis mellifera; oral, unspecified) was over 31.8 µg/piece. For the same molecule, the NOAEL (Coturnix japonica) was 151 mg/kg-day, the NOEC (Tagia sp.) was 2 mg/kg and the LR50 (Typhlodromus pyri; acute, duration: 10 days) was 256 g/ha. The LR50 (Typhlodromus pyri; not reported) was 80 g/ha.
